Drawing on USRE48687E1, “Pyridinylaminopyrimidine derivatives, preparation process and use thereof” (Shanghai Allist Pharmaceuticals Co., Ltd., priority 2014, dated 2021), this text covers IC50 for 18 compounds.

What all share (format): cell-based
Common to all, as to settings: SRB staining
In general terms: Sulforhodamine B stains cellular protein and so reports cell mass.

Test [1] deals with human lung cancer cell (HCC827, EGFR Exon 19 deletion activating mutation). Description: Proliferation inhibition (SRB) on human lung cancer cell HCC827. From the text: (§1) The pharmacodynamic action of the compound of the present invention in terms of inhibiting the proliferation of cancer cells may be assayed by conventional methods. […] Inhibition ratio (%)=[(blank control OD−inhibitor OD)/blank control OD]×100%
(§2) Blank control OD: the OD value of the well of normally growed cells without the action of a drug.
(§3) Inhibitor OD: the OD value of the well of cells with the action of the added compounds to be screened.
(§4) The median inhibitory concentration (IC50) value is obtained by the software GraphPad Prism 5.0 by the 4-parameter logistic curve fit calculation. Each experiment is repeated three times, and the average IC50 value for three experiments is used as the final index for the inhibitory ability.
(§5) Cells in the logarithmic phase were inoculated to 96-well culture plates (cell density: 5000/well, cell suspension: 180 μl/well), and cultured at 37° C. under 5% CO2 for 24 hours. After the culturing, the cells adhered to the well walls. Each of compounds was dissolved in DMSO in advance to formulate a […] stock solution. Upon testing, the stock solution was diluted with complete medium to 10 times the target concentration in another 96-cell plate. And then the compound was added at 20 μl/cell in the 96-well plate in which the cells were inoculated, i.e. the target concentration could be reached. The well for each concentration was triplicated, and the blank control was established. Cells continued to be cultured at 37° C. under 5% CO2 for 72 hours. After the termination of culturing, 50 μl pre-cooled (4° C.) 50% trichloroacetic acid, i.e., TCA was added to each of wells (final concentration=10%), and was placed at 4° C. for 1 hour to fix the cells. The resulting matter was washed with purified water for at least 5 times, and dried naturally in air or at 60° C. in an oven. 4 mg/ml Sulforhodamine B (SRB) solution prepared by 1% glacial acetic acid/purified water was added at 100 μl/well to each well so as to stain for 1 hour at room temperature. The supernatant was discarded. The residue was washed with 1% acetic acid for at least 5 times to remove the non-specifically binding, and dried for use. To each well was added 150 μl of 10 mM Tris-HCl solution for dissolving the contents therein.

For test [2], the system named is human skin cancer cell (A431, wild-type EGFR). Kind of test: Proliferation inhibition (SRB) on human skin cancer cell A431.
Text: as §1, §2, §3, §4, §5

Test [3] has as its system human lung cancer cell (H1975, EGFR L858R/T790M resistant mutation). Kind of test: Proliferation inhibition (SRB) on human lung cancer cell H1975.
Text: as §1, §2, §3, §4, §5

Consider `C=CC(=O)Nc1cc(Nc2nccc(-c3cn(C)c4ccccc34)n2)c(OC)cc1N(C)CCN(C)C` [AZD9291, reference compound], for which the IC50 in test [1] (Homo sapiens, 72 hours) turned out to be 3.8 nM; in test [2] (Homo sapiens, A-431, 72 hours), 70.4 nM.

In the case of `C=CC(=O)Nc1cc(Nc2ncc(Cl)c(-c3cn(C)c4ccccc34)n2)c(OC(C)C)nc1N(C)CCN(C)C` [Example 1 compound, N-{2-{[2-(dimethylamino)ethyl](methyl)amino}-6-isopropyloxy-5-{5-chloro-[4-(1-methyl-1H-indol-3-yl)pyrimidin-2-yl]amino}pyridin-3-yl}acrylamide], the IC50 in test [1] (72 hours) stood at 2.15 nM; in test [3] (72 hours), 5.64 nM; in test [2] (72 hours) it was 140 nM.

For the compound `C=CC(=O)Nc1cc(Nc2nccc(-c3cn(C)c4ccccc34)n2)c(OC(C)C)nc1N(C)CCN(C)C` [Example 2 compound, N-{2-{[2-(dimethylamino)ethyl](methyl)amino}-6-isopropyloxy-5-{[4-(1-methyl-1H-indol-3-yl)pyrimidin-2-yl]amino}pyridin-3-yl}acrylamide], the IC50 in test [1] (Homo sapiens, HCC827, 72 h) was 4.22 nM; in test [3] (Homo sapiens, NCI-H1975, 72 h) it was 5.54 nM; in test [2] (Homo sapiens, A-431, 72 h) it was 196 nM.

Take `C=CC(=O)Nc1cc(Nc2nccc(-c3cn(C)c4ccccc34)n2)c(OCC(F)(F)F)nc1N(C)CCN(C)C` [Example 3 compound, N-{2-{[2-(dimethylamino)ethyl](methyl)amino}-6-(2,2,2-trifluoroethoxyl)-5-{[4-(1-methyl-1H-indol-3-yl)pyrimidin-2-yl]amino}pyridin-3-yl}acrylamide]: the IC50 in test [1] (Homo sapiens, HCC827, 72 h) worked out at 1.34 nM; in test [3] (Homo sapiens, NCI-H1975, 72 h), 2.28 nM; in test [2] (Homo sapiens, A-431, 72 h) it was 224 nM.

Take `C=CC(=O)Nc1cc(Nc2ncc(Cl)c(-c3cn(C)c4ccccc34)n2)c(OCC(F)(F)F)nc1N(C)CCN(C)C` [Example 4 compound, N-{2-{[2-(dimethylamino)ethyl](methyl)amino}-6-(2,2,2-trifluoroethoxyl)-5-{5-chloro-[4-(1-methyl-1H-indol-3-yl)pyrimidin-2-yl]amino}pyridin-3-yl}acrylamide]: the IC50 in test [1] (Homo sapiens, HCC827, 72 h) turned out to be 1.92 nM; in test [3] (Homo sapiens, NCI-H1975, 72 h) it was 6.15 nM; in test [2] (Homo sapiens, A-431, 72 h), 164 nM.

As for `C=CC(=O)Nc1cc(Nc2nccc(-c3cn(C)c4ccc(F)cc34)n2)c(OC(C)C)nc1N(C)CCN(C)C` [Example 5 compound, N-{2-{[2-(dimethylamino)ethyl](methyl)amino}-6-isopropyloxy-5-{[4-(1-methyl-5-fluoro-1H-indol-3-yl)pyrimidin-2-yl]amino}pyridin-3-yl}acrylamide], the IC50 in test [1] (Homo sapiens, HCC827, 72 h) was found to be 2.58 nM; in test [3] (Homo sapiens, NCI-H1975, 72 h), 4.83 nM; in test [2] (Homo sapiens, A-431, 72 h), 181 nM.

Regarding `C=CC(=O)Nc1cc(Nc2nccc(-c3cn(C)c4cc(F)c(F)cc34)n2)c(OC(C)C)nc1N(C)CCN(C)C` [Example 6 compound, N-{2-{[2-(dimethylamino)ethyl](methyl)amino}-6-isopropyloxy-5-{[4-(1-methyl-5,6-difluoro-1H-indol-3-yl)pyrimidin-2-yl]amino}pyridin-3-yl}acrylamide], the IC50 stood at 2.36 nM in test [1] (Homo sapiens, HCC827, 72 h); 5.2 nM in test [3] (Homo sapiens, NCI-H1975, 72 h); 338 nM in test [2] (Homo sapiens, A-431, 72 h).

For `C=CC(=O)Nc1cc(Nc2ncc(Cl)c(-c3cn(C)c4cc(F)ccc34)n2)c(OC(C)C)nc1N(C)CCN(C)C` [Example 7 compound, N-{2-{[2-(dimethylamino)ethyl](methyl)amino}-6-isopropyloxy-5-{5-chloro-[4-(1-methyl-6-fluoro-1H-indol-3-yl)pyrimidin-2-yl]amino}pyridin-3-yl}acrylamide], the IC50 in test [1] (Homo sapiens, HCC827, 72 h) turned out to be 1.4 nM; in test [3] (Homo sapiens, NCI-H1975, 72 h), 16.7 nM; in test [2] (Homo sapiens, A-431, 72 h) it was 307 nM.

Take `C=CC(=O)Nc1cc(Nc2ncc(Cl)c(-c3cn(C)c4cc(F)c(F)cc34)n2)c(OC(C)C)nc1N(C)CCN(C)C` [Example 8 compound, N-{2-{[2-(dimethylamino)ethyl](methyl)amino}-6-isopropyloxy-5-{5-chloro-[4-(1-methyl-5,6-difluoro-1H-indol-3-yl)pyrimidin-2-yl]amino}pyridin-3-yl}acrylamide]: the IC50 in test [1] (Homo sapiens, HCC827, 72 h) worked out at 5.98 nM; in test [3] (Homo sapiens, NCI-H1975, 72 h) it was 8.4 nM; in test [2] (Homo sapiens, A-431, 72 h), 375 nM.

In the case of `C=CC(=O)Nc1cc(Nc2ncc(Cl)c(-c3cn(C)c4ccc(F)cc34)n2)c(OC(C)C)nc1N(C)CCN(C)C` [Example 9 compound, N-{2-{[2-(dimethylamino)ethyl](methyl)amino}-6-isopropyloxy-5-{5-chloro-[4-(1-methyl-5-fluoro-1H-indol-3-yl)pyrimidin-2-yl]amino}pyridin-3-yl}acrylamide], the IC50 in test [1] (Homo sapiens, HCC827, 72 h) turned out to be 1.17 nM; in test [3] (Homo sapiens, NCI-H1975, 72 h) it was 12.6 nM; in test [2] (Homo sapiens, A-431, 72 h), 697 nM.

`C=CC(=O)Nc1cc(Nc2ncc(F)c(-c3cn(C)c4ccc(F)cc34)n2)c(OC(C)C)nc1N(C)CCN(C)C` [Example 10 compound, N-{2-{[2-(dimethylamino)ethyl](methyl)amino}-6-isopropyloxy-5-{5-fluoro-[4-(1-methyl-5-fluoro-1H-indol-3-yl)pyrimidin-2-yl]amino}pyridin-3-yl}acrylamide]: the IC50 in test [1] (Homo sapiens, HCC827, 72 h) was found to be 2.62 nM; in test [3] (Homo sapiens, NCI-H1975, 72 h), 5.32 nM; in test [2] (Homo sapiens, A-431, 72 h), 209 nM.

On to `C=CC(=O)Nc1cc(Nc2ncc(F)c(-c3cn(C)c4ccccc34)n2)c(OC(C)C)nc1N(C)CCN(C)C` [Example 11 compound, N-{2-{[2-(dimethylamino)ethyl](methyl)amino}-6-isopropyloxy-5-{5-fluoro-[4-(1-methyl-1H-indol-3-yl)pyrimidin-2-yl]amino}pyridin-3-yl}acrylamide], for which the IC50 amounted to 2.23 nM in test [1] (Homo sapiens, HCC827, 72 h); 7.22 nM in test [3] (Homo sapiens, NCI-H1975, 72 h); 210 nM in test [2] (Homo sapiens, A-431, 72 h).

For `C=CC(=O)Nc1cc(Nc2ncc(F)c(-c3cn(C)c4cc(F)c(F)cc34)n2)c(OC(C)C)nc1N(C)CCN(C)C` [Example 12 compound, N-{2-{[2-(dimethylamino)ethyl](methyl)amino}-6-isopropyloxy-5-{5-fluoro-[4-(1-methyl-5,6-difluoro-1H-indol-3-yl)pyrimidin-2-yl]amino}pyridin-3-yl}acrylamide], the IC50 in test [1] (Homo sapiens, HCC827, 72 h) amounted to 0.96 nM; in test [3] (Homo sapiens, NCI-H1975, 72 h), 9.01 nM; in test [2] (Homo sapiens, A-431, 72 h), 339 nM.

As for `C=CC(=O)Nc1cc(Nc2nccc(-c3cn(C)c4cc(F)ccc34)n2)c(OC(C)C)nc1N(C)CCN(C)C` [Example 13 compound, N-{2-{[2-(dimethylamino)ethyl](methyl)amino}-6-isopropyloxy-5-{[4-(1-methyl-6-fluoro-1H-indol-3-yl)pyrimidin-2-yl]amino}pyridin-3-yl}acrylamide], the IC50 came out at 2.62 nM in test [1] (Homo sapiens, HCC827, 72 h); 5.33 nM in test [3] (Homo sapiens, NCI-H1975, 72 h); 209 nM in test [2] (Homo sapiens, A-431, 72 h).

As to `C=CC(=O)Nc1cc(Nc2ncc(F)c(-c3cn(C)c4ccccc34)n2)c(OCC(F)(F)F)nc1N(C)CCN(C)C` [Example 14 compound, N-{2-{[2-(dimethylamino)ethyl](methyl)amino}-6-(2,2,2-trifluoroethoxyl)-5-{5-fluoro-[4-(1-methyl-1H-indol-3-yl)pyrimidin-2-yl]amino}pyridin-3-yl}acrylamide], the IC50 was 0.77 nM in test [1] (Homo sapiens, HCC827, 72 h); 5.17 nM in test [3] (Homo sapiens, NCI-H1975, 72 h); 242 nM in test [2] (Homo sapiens, A-431, 72 h).

With `C=CC(=O)Nc1cc(Nc2nccc(-c3cn(C)c4ccc(F)cc34)n2)c(OCC(F)(F)F)nc1N(C)CCN(C)C` [Example 15 compound, N-{2-{[2-(dimethylamino)ethyl](methyl)amino}-6-(2,2,2-trifluoroethoxyl)-5-{[4-(1-methyl-5-fluoro-1H-indol-3-yl)pyrimidin-2-yl]amino}pyridin-3-yl}acrylamide], the IC50 is 0.69 nM in test [1] (Homo sapiens, HCC827, 72 h); 6.28 nM in test [3] (Homo sapiens, NCI-H1975, 72 h); 337 nM in test [2] (Homo sapiens, A-431, 72 h).

For the compound `C=CC(=O)Nc1cc(Nc2ncc(Cl)c(-c3cn(C)c4ccccc34)n2)c(OC(C)C)nc1N(C)CCN(C)C` [Example 16 compound, N-{2-{[2-(dimethylamino)ethyl](methyl)amino}-6-isopropyloxy-5-{5-chloro-[4-(1-methyl-1H-indol-3-yl)pyrimidin-2-yl]amino}pyridin-3-yl}acrylamide methanesulfonate], the IC50 in test [1] (Homo sapiens, HCC827, 72 h) came out at 1.45 nM; in test [3] (Homo sapiens, NCI-H1975, 72 h) it was 5.43 nM; in test [2] (Homo sapiens, A-431, 72 h), 273 nM.

On to `C=CC(=O)Nc1cc(Nc2ncc(Cl)c(-c3cn(C)c4cc(F)c(F)cc34)n2)c(OC(C)C)nc1N(C)CCN(C)C` [Example 17 compound, N-{2-{[2-(dimethylamino)ethyl](methyl)amino}-6-isopropyloxy-5-{5-chloro-[4-(1-methyl-5,6-difluoro-1H-indol-3-yl)pyrimidin-2-yl]amino}pyridin-3-yl}acrylamide methanesulfonate], for which the IC50 came to 5.56 nM in test [1] (72 hours, methanesulfonate) and 7.63 nM in test [3] (72 hours, methanesulfonate).

As a reminder, the IC50 is the concentration needed to halve the response being measured.
